Patent publication US4977189A, “Substituted guanidinedicarbonyl derivatives” (American Cyanamid Company, priority 1988, dated 1990)

Key:
[1] = system: Brain-Specific Receptors (3H-benzodiazepine binding); assay: Inhibition of the Binding of 3H-Benzodiazepine to Brain-Specific Receptors of Rats; design: species or system rat (male albino, Wistar strain; whole cortex); conditions: 3H-diazepam (1.5 nM) or 3H-flunitrazepam (1.0 nM); rat cortex P2-fraction; 30 minutes in ice; test concentration not given
Text: A test utilized for the determination of anxiolytic activity is the measurement of the ability of test compounds to inhibit the binding of tritiated benzodiazepines to brain-specific recptors of warm-blooded animals. A modification of the method described by R. F. Squires, et al., Nature, 266, No. 21, pg 732 (April, 1977) and H. Mohler, et al., Science, 198, pg 849 (1977) was employed.
Male albino rats (Wistar strain, weighing 150-200 g each) were used. The test compounds were solubilized in either dimethylformamide, acetic acid, ethanol or hydrochloric acid.
Whole cortex of rats was homogenized gently in 20 volumes of ice-cold 0.32M sucrose, centrifuged twice at 1000 g for 10 minutes and then recentrifuged at 30,000 g for 20 minutes to produce a crude P2 -synaptosomal fraction. The P2 -fraction was either: (1) resuspended in twice the original volume in hypotonic 50 mM Tris.HCl (pH 7.4), or (2) resuspended in one-half the original volume in hypotonic 10 mM Tris.HCl (pH 7.4) and frozen (-20° C.) until time of use. Frozen P2 preparations were thawed and resuspended in four times the original homogenizing volume at time of assay.
The binding assay consisted of 300 μl of the P2 -fraction suspension (0.2-0.4 mg protein), 100 μl of test drug and 100 μl of ^3 H-diazepam (1.5 nM, final concentration) or ^3 H-flunitrazepam (1.0 nM, final concentration) which was added to 1.5 ml of 50 mM Tris.HCl (pH 7.4). Non-specific binding controls and total binding controls d 100 μl of diazepam (3 μM final concentration) and 100 μl of deionized water, respectively, in place of the test compound. Incubation for 30 minutes proceeded in ice and was terminated by filtration, under vacuum, through glass fiber filters. The filters were washed twice with 5 ml of ice-cold 50 mM Tris.HCl (pH 7.4) and placed in scintillation vials. After drying at 50°-60° C. for 30 minutes, 10 ml of diluent was added and the radioactivity determined in a scintillation counter.
Inhibition of binding was calculated by the difference between total binding and binding in the presence of test compound, divided by the total binding, X 100.

Royal Hart mice = assay: Hypoxic Survival Test; type: in vivo, mouse (Royal Hart); conditions: 10% oxygen; for responders at 50 mg/kg / responders at 100 mg/kg / responders at 10 mg/kg / responders at 200 mg/kg / responders at 25 mg/kg: Mus musculus, ip, 5 min, 30 minutes prior, survival after 5 minutes, read-out: % Survivors; for responders at 50 mg/kg: 50 mg/kg intraperitoneally; for responders at 100 mg/kg: 100 mg/kg intraperitoneally; for responders at 10 mg/kg: 10 mg/kg intraperitoneally; for responders at 200 mg/kg: 200 mg/kg intraperitoneally; for responders at 25 mg/kg: 25 mg/kg intraperitoneally
Method: A useful in vivo test that measures how effectively central nervous system-acting drugs enhance survival in a hypoxic environment, presumably by improving the ratio of energy supply to demand is known as the Hypoxic Survival Test. […] Drugs are tested by intraperitoneally injecting groups of mice 30 minutes prior to placing them in a hypoxic mixture and measuring survival. The rationale of this test is that drugs which enhance survival under hypoxic conditions without concomitant, depression or sedative side effects, may do so by enhancing energy metabolism, or by preserving normal brain function under conditions of reduced energy metabolism. Given the dependence of the brain on a constant supply of energy, drugs which have this property may have many far-reaching therapeutic indications, including recovery from stroke and closed head injury, as well as reducing the deleterious effects of the aging central nervous system.
Groups of 20 Royal Hart mice (6 weeks of age) are injected intraperitoneally with test compound (1-200 mg/kg) 30 minutes prior to placing them in a hypoxic mixture (10% oxygen in 90% […]) and measuring survival after 5 minutes.
A separate group of 20 mice is injected intraperitoneally with saline solution (0.01 cc/g of body weight) and processed as described above.
Still another group of 20 mice is injected intraperitoneally with 0.125 mg/kg of physostigmine and processed as described above.

Compound | % Inhibition [1] [%] | responders at 100 mg/kg (Royal Hart mice) [%] | other results
CN(C)C(=O)c1ccc(NC(=NC(=O)c2ccccc2)NC(=O)c2ccccc2)cc1 [4-[[(Benzoylamino)(benzoylimino)methyl]amino]-N,N-dimethylbenzamide] | 14 |  | 
Cc1cccc(C(=O)NC(=Nc2ccc(C(=O)N(C)C)cc2)NC(=O)c2cccc(C)c2)c1 [4-[[Bis[(3-methylbenzoyl)amino]methylene]amino]-N,N-dimethylbenzamide] | 29 |  | 
Cc1cccc(C(=O)N=C(NC(=O)c2cccc(C)c2)Nc2ccccc2C(N)=O)c1 [N,N'-[[2-(Aminocarbonyl)phenyl]carbonimidoyl]bis[3-methylbenzamide]] |  | 48 | responders at 50 mg/kg (Royal Hart mice): 40%
CCN(CC)CCNC(=NC(=O)c1ccc(C(F)(F)F)cc1)NC(=O)c1ccc(C(F)(F)F)cc1 [N,N'-[[2-(Diethylaminoethyl]carbonimidoyl]bis[4-(trifluoromethyl)benzamide] |  | 65 | responders at 10 mg/kg (Royal Hart mice): 45%; responders at 50 mg/kg (Royal Hart mice): 70%; responders at 200 mg/kg (Royal Hart mice): 85%
Cc1cccc(C(=O)N=C(NC(=O)c2cccc(C)c2)Nc2cccc(C(N)=O)c2)c1 [N,N'-[[3-(Aminocarbonyl)phenyl]carbonimidoyl]bis[3-methylbenzamide]] | 17 |  | 
COc1ccc(C(=O)N=C(NC(=O)c2ccc(OC)cc2)Nc2ccc(C(N)=O)cc2)cc1 [N,N'-[[4-(Aminocarbonyl)phenyl]carbonimidoyl]bis[4-methoxybenzamide]] | 17 |  | 
CCCCCCCCNC(=O)c1ccc(NC(=NC(=O)c2cccc(C)c2)NC(=O)c2cccc(C)c2)cc1 [N,N'-[[4-(Octylamino)carbonyl]phenyl]carbonimidoyl]bis[3-methylbenzamide]] | 16 |  | 
NS(=O)(=O)c1ccc(CNC(=NC(=O)c2ccccc2)NC(=O)c2ccccc2)cc1 [N,N'-[[[4-(Aminosulfonyl)phenyl]methyl]carbonimidoyl]bisbenzamide] |  | 35 | responders at 10 mg/kg (Royal Hart mice): 50%
CNC(=O)c1ccc(NC(=NC(=O)c2cccc(C)c2)NC(=O)c2cccc(C)c2)cc1 [N,N'[[4-[(Methylamino)carbonyl]phenyl]carbonimidoyl]bis[3-methylbenzamide]] | 17 |  | 
COc1ccc(C(=O)NC(=NC(=O)c2ccc(C)cc2)Nc2ccccc2C(N)=O)cc1 [N-[[[2-(Aminocarbonyl)phenyl]amino][(4-methoxybenzoyl)amino]methylene]-4-methylbenzamide] | 10 |  | 
Cc1cccc(C(=O)N=C(NC(=O)c2ccccc2)Nc2cccc(C(N)=O)c2)c1 [N-[[[3-(Aminocarbonyl)phenyl]amino](benzoylamino)methylene]-3-methylbenzamide] | 15 |  | 
COc1ccc(C(=O)NC(=NC(=O)c2ccc(C)cc2)Nc2cccc(C(N)=O)c2)cc1 [N-[[[3-(Aminocarbonyl)phenyl]amino][(4-methoxybenzoyl)amino]methylene]-4-methylbenzamide] | 12 |  | 
NC(=O)c1ccc(NC(=NC(=O)c2cccs2)NC(=O)c2ccccc2)cc1 [N-[[[4-(Aminocarbonyl)phenyl]amino](benzoylamino)methylene]-2-thiophenecarboxamide] |  |  | responders at 10 mg/kg (Royal Hart mice): 50%; responders at 50 mg/kg (Royal Hart mice): 50%
COc1cc(C(=O)N=C(NC(=O)c2ccccc2)Nc2ccc(C(N)=O)cc2)cc(OC)c1OC [N-[[[4-(Aminocarbonyl)phenyl]amino](benzoylamino)methylene]-3,4,5-trimethoxybenzamide] |  |  | responders at 10 mg/kg (Royal Hart mice): 50%; responders at 25 mg/kg (Royal Hart mice): 50%
NC(=O)c1ccc(NC(=NC(=O)c2cccc(Br)c2)NC(=O)c2ccccc2)cc1 [N-[[[4-(Aminocarbonyl)phenyl]amino](benzoylamino)methylene]-3-bromobenzamide] |  |  | responders at 10 mg/kg (Royal Hart mice): 50%
Cc1cccc(C(=O)N=C(NC(=O)c2ccccc2)Nc2ccc(C(N)=O)cc2)c1 [N-[[[4-(Aminocarbonyl)phenyl]amino](benzoylamino)methylene]-3-methylbenzamide] | 33 |  | 
NC(=O)c1ccc(NC(=NC(=O)c2ccc(Br)cc2)NC(=O)c2ccccc2)cc1 [N-[[[4-(Aminocarbonyl)phenyl]amino](benzoylamino)methylene]-4-bromobenzamide] |  | 43 | responders at 10 mg/kg (Royal Hart mice): 42%; responders at 25 mg/kg (Royal Hart mice): 60%
NC(=O)c1ccc(NC(=NC(=O)Cc2ccccc2)NC(=O)c2ccccc2)cc1 [N-[[[4-(Aminocarbonyl)phenyl]amino](benzoylamino)methylene]benzeneacetamide] | 22 |  | 
NC(=O)c1ccc(NC(=NC(=O)c2ccccc2)NC(=O)C23CC4CC(CC(C4)C2)C3)cc1 [N-[[[4-(Aminocarbonyl)phenyl]amino](benzoylamino)methylene]tricyclo[3.3.1.1^3.7]decane-1-carboxamide] |  |  | responders at 50 mg/kg (Royal Hart mice): 42%
COc1ccc(C(=O)N=C(NC(=O)c2ccc(C)cc2)Nc2ccc(C(N)=O)cc2)cc1 [N-[[[4-(Aminocarbonyl)phenyl]amino][4-methylbenzoyl)amino]methylene]-4-methoxybenzamide] |  | 43 | 
NC(=O)c1ccc(NC(=NC(=O)c2ccccc2)NC(=O)C=Cc2ccccc2)cc1 [N-[[[4-(Aminocarbonyl)phenyl]amino][(1-oxo-3-phenyl-2-propenyl)amino]methylene]benzamide] |  | 40 | 
NC(=O)c1ccc(NC(=NC(=O)c2ccc(F)cc2)NC(=O)c2ccc(Br)cc2)cc1 [N-[[[4-(Aminocarbonyl)phenyl]amino][(4-bromobenzoyl)amino]methylene]-4-fluorobenzamide] |  | 44 | responders at 25 mg/kg (Royal Hart mice): 40%
Cc1ccc(C(=O)N=C(NC(=O)c2ccc(Br)cc2)Nc2ccc(C(N)=O)cc2)cc1 [N-[[[4-(Aminocarbonyl)phenyl]amino][(4-bromobenzoyl)amino]methylene]-4-methylbenzamide] | 57 |  | 
COc1ccc(C(=O)N=C(NC(=O)c2ccc(F)cc2)Nc2ccc(C(N)=O)cc2)cc1 [N-[[[4-(Aminocarbonyl)phenyl]amino][(4-fluorobenzoyl)amino]methylene]-4-methoxybenzamide] |  | 42 | responders at 25 mg/kg (Royal Hart mice): 45%; responders at 50 mg/kg (Royal Hart mice): 60%
COc1ccc(C(=O)NC(=NC(=O)c2cccc(C)c2)Nc2ccc(C(N)=O)cc2)cc1 [N-[[[4-(Aminocarbonyl)phenyl]amino][(4-methoxybenzoyl)amino]methylene]-3-methylbenzamide] |  | 50 | responders at 10 mg/kg (Royal Hart mice): 50%; responders at 50 mg/kg (Royal Hart mice): 45%; responders at 200 mg/kg (Royal Hart mice): 45%
COc1ccc(C(=O)NC(=NC(=O)c2ccc(C(F)(F)F)cc2)Nc2ccc(C(N)=O)cc2)cc1 [N-[[[4-(Aminocarbonyl)phenyl]amino][(4-methoxybenzoyl)amino]methylene]-4-(trifluoromethyl)benzamide] |  | 47 | responders at 50 mg/kg (Royal Hart mice): 55%
NC(=O)c1ccc(NC(=NC(=O)c2ccc(C(F)(F)F)cc2)NC(=O)c2ccccc2)cc1 [N-[[[4-(Aminocarbonyl)phenyl]amino][benzoylamino]methylene]-4-(trifluoromethyl)benzamide] |  |  | responders at 50 mg/kg (Royal Hart mice): 45%
CNC(=O)Oc1ccc2c(c1)[C@]1(C)CCN(C)[C@@H]1N2C [physostigmine, reference compound] |  |  | physostigmine treated mice that survive (Royal Hart mice; 0.125 mg/kg intraperitoneally, after 5 minutes, saline control mice 5-20%): 60-80%
